According to PMC11106165, “Repurposing the KCa3.1 Blocker Senicapoc for Ischemic Stroke” (Translational Stroke Research, 2023):

What was measured:
Type in all cases: in vivo, mouse
[1] = system: male C57BL/6 J mice, tMCAO; assay: tMCAO in mice, 14-point tactile and proprioceptive limb-placing score; conditions: for maximum neurological score reached: vehicle maximum 5; for average neurological score (14-point): started 12 h, day 8, vehicle average 3
Description: Reversible focal cerebral ischemia was induced by occlusion of the left middle cerebral artery (MCA) according to the classic filament method of Zea Longa as previously described for mice by our laboratory. All surgeries were performed in the MicroSurgery Core of the UC Davis School of Medicine by a microsurgeon with 20 years of surgical experience using a silicone rubber-coated nylon monofilament with a tip diameter of 0.21 ± 0.02 mm (No. 702112PK5Re, Doccol Corporation). Anesthesia was induced with 5% isoflurane and then maintained with 0.5 to 1.5% isoflurane in medical pure oxygen administered through a facemask. To assure consistent and continuous reduction of cerebral blood flow (CBF), a laser Doppler (Moor Instruments: MOORVMS-LDF) probe adapter was affixed to the surface of the skull over the brain area supplied by the MCA using dental cement. The probe remained in place throughout the MCAO surgery and CBF was measured continuously to confirm occlusion and later establishment of reperfusion. Animals were kept under anesthesia and body temperature was monitored throughout the whole procedure and maintained at > 36.5 °C using a feedback-controlled heating pad. Following 60 min of MCAO, the filament was withdrawn to allow reperfusion. Blood flow measurements were continued for another 15 min before removing the adapter and the laser Doppler probe. Animals received subcutaneous Buprenex at 0.02 mg/kg every 12 h to limit post-surgical pain for 24 h after surgery. The survival rate was 93%. […] In this study, out of the animals surviving to day 8 (45 out of 48), two animals were excluded because they lacked an obvious neurological deficit score at 12 h. Animals that met inclusion criteria were assigned to the 3 groups (low- and high-dose senicapoc or vehicle) based on a computer-generated randomization scheme. Six sham animals, where the filament was placed into the external carotid artery but not advanced, were used as controls for the qPCR experiments.
Starting at 12 h after tMCAO, and following the first neurological scoring, animals received either the vehicle, Miglyol 812 neutral oil (Medium chain triglycerides, Spectrum Chemicals), a low dose of senicapoc at 10 mg/kg, or a high dose of senicapoc at 40 mg/kg via intraperitoneal (IP) injection. Mice then received the same dosage of senicapoc (or vehicle) IP every 12 h for a total of 14 doses. In the experiment in Fig. 7, drug administration was started 3 h after reperfusion. Senicapoc was synthesized in our laboratory as described. Chemical identity and purity (> 98%) were tested by ^1H and ^13C-NMR and HPLC.
Since filament MCAO induces infarction in both the striatum and the cortex, we used the 14-point score tactile and proprioceptive limp-placing test to evaluate mice every 24 h. […] The scoring was performed as previously described in detail. The investigator performing the scoring was blinded to the treatment groups.

[2] = system: male C57BL/6 J mice, tMCAO; assay: Immunohistochemistry (Iba-1, CD3, NeuN) of infarcted hemisphere on day 8 after MCAO
Excerpt: After the MRI on day 8, animals were euthanized with an overdose of isoflurane, and brains were quickly removed and sectioned into four 2-mm-thick coronal slices starting from the frontal pole. […] Cell nuclei were visualized with 4′,6-diamidino-2-phenylindole (DAPI).
The images were then opened on the BZ-X Analyzer, the left (infarcted) hemisphere for each section extracted and analyzed with a macro within the “Hybrid Cell Count” feature of the BZ-X Analyzer program. Images were thresholded to exclusively the area of stained cells without considering artifacts, ventricles, or folds. Each macro-generated image was verified by careful visual inspection. Results for Iba1 and CD3 are reported as percentage of section area (µm^2) that was positively stained, divided by total section area (µm^2) in the infarcted left hemisphere. NeuN is reported as the inverse of the percentage of section area (µm^2) that was positively stained, divided by total section area (µm^2) in the infarcted left hemisphere in order to quantify the Neu negative area.

[3] = system: male C57BL/6 J mice, tMCAO; assay: RT-qPCR of inflammatory markers in brain on day 8 after tMCAO
Description: After MRIs were completed, mice were euthanized with an overdose of isoflurane, brains harvested, split into ipsilateral and contralateral hemispheres, and immediately frozen with liquid N2. Brain hemispheres were homogenized in mortar and pestles with liquid N2. RNA was extracted from brain homogenates (Fig. 7b) or MMC cell pellets (Fig. 2) with Trizol (ThermoFisher, Catalog # 15,596,026) according to the manufacturer’s protocol. RNA purity and concentration were assessed using a Nanodrop Spectrophotometer ND-1000 (Marshall Scientific). The 260 nm/280 nm absorption ratios for the samples ranged from 1.95 to 2.00. Subsequently, a cDNA library was made with a High-Capacity cDNA Reverse Transcription Kit (ThermoFisher Scientific, Catalog# 4,374,967), with 2 µg of total RNA per […]. Reactions were carried out in a PTC-200 Peltier Thermal Cycler; the conditions were as follows: 25 °C for 10 min, 37 °C for 120 min, 85 °C for 5 min, with final storage at 4 °C. RT-qPCR reactions were conducted in an Applied Biosystems Viia7 Real-Time PCR System using Maxima SYBR Green/ROX qPCR Master Mix (ThermoFisher Scientific, Catalog #K022) and with the recommended three-step cycling protocol. All CT values were normalized to the geometric mean of three housekeeping genes, β-actin, GAPDH, and 18S, as recommended by Vandesompele et al.. Fold change was calculated by the ∆∆Ct method. Primer sequences are provided in Supplementary Table 1. For brain samples, relative mRNA levels were generated by normalizing to sham.
Statistical analysis of infarct percentage comparing two groups was performed using unpaired t-test. Statistical analysis of three groups (e.g., vehicle vs senicapoc 10 mg/kg vs senicapoc 40 mg/kg) was performed with analysis of variance (ANOVA) with a post hoc pair-wise comparison using Tukey’s test (Origin software), as previously described. All data are shown as box-and-whisker plots with an overlay of the individual animal data. The boxes show mean ± S.E.M, and the whiskers show confidence intervals. The categorical neurological scoring data in Fig. 3 b is shown as a scatter plot without means or S.E.M and was analyzed with the Mann–Whitney U test as per recommendations for optimal presentation and analysis of non-parametric data in pre-clinical stroke studies by Dirnagl. For the IHC data in Fig. 5 comparing two groups, unpaired t-tests were performed. The brain qPCR data in Fig. 7 was analyzed in Prism using one-way ANOVA followed by Dunnett’s test to correct for multiple comparisons. For all statistical testing, P < 0.05 was used as the level of significance. * = P < 0.05, ** = P < 0.01, *** = P < 0.001.

[4] = fold-change relative to sham, day 8, adjusted P 0.01
[5] = fold-change relative to sham, day 8, adjusted P <0.001

## NC(=O)C(c1ccccc1)(c1ccc(F)cc1)c1ccc(F)cc1 [senicapoc]
[1]; 10 mg/kg low-dose group
  maximum neurological score reached: 9
[1]; 10 mg/kg
  average neurological score (14-point): 7
[1]; 40 mg/kg high-dose group
  maximum neurological score reached: 10
[1]; 40 mg/kg started 3 h after tMCAO
  sensorimotor coordination (neurological deficit score): improved on both day 3 and day 8
[1]; 40 mg/kg
  average neurological score (14-point): 9
[2]
  neuronal death (NeuN-negative area): decreases neuronal death
[2]; 40 mg/kg
  T cell infiltration (CD3 staining): significantly reduced
  microglia/macrophage activation and infiltration (Iba1 staining): significantly reduced
[3]; 40 mg/kg started 3 h, day 8, vs vehicle
  expression of IL-1β, TNF-α, IL-6, CD68, NLRP3, IL-2, IFN-γ, IL-4 and IL-10 in the infarcted hemisphere: significantly reduced
[3]; fold-change relative to sham, day 8, 40 mg/kg started 3 h, adjusted P <0.001
  il1b mRNA, Mean Diff. vehicle-treated ipsi vs senicapoc-treated ipsi: 3.115
[3]; fold-change relative to sham, day 8, adjusted P 0.003
  tgfb mRNA, Mean Diff. vehicle-treated ipsi vs senicapoc-treated ipsi: 2.876
[3]; [4]
  il4 mRNA, Mean Diff. vehicle-treated ipsi vs senicapoc-treated ipsi: 2.833
  nlrp3 mRNA, Mean Diff. vehicle-treated ipsi vs senicapoc-treated ipsi: 4.839
[3]; fold-change relative to sham, day 8, adjusted P 0.48
  inos mRNA, Mean Diff. vehicle-treated ipsi vs senicapoc-treated ipsi: 6.938
[3]; fold-change relative to sham, day 8, adjusted P 0.79
  bdnf mRNA, Mean Diff. vehicle-treated ipsi vs senicapoc-treated ipsi: -11.09
[3]; fold-change relative to sham, day 8, adjusted P 0.98
  il17a mRNA, Mean Diff. vehicle-treated ipsi vs senicapoc-treated ipsi: 0.3131
[3]; [5]
  cd68 mRNA, Mean Diff. vehicle-treated ipsi vs senicapoc-treated ipsi: 12.76
  ifng mRNA, Mean Diff. vehicle-treated ipsi vs senicapoc-treated ipsi: 8.327
  il2 mRNA, Mean Diff. vehicle-treated ipsi vs senicapoc-treated ipsi: 10.6
  il6 mRNA, Mean Diff. vehicle-treated ipsi vs senicapoc-treated ipsi: 7.107
  il10 mRNA, Mean Diff. vehicle-treated ipsi vs senicapoc-treated ipsi: 13.82
  tnfa mRNA, Mean Diff. vehicle-treated ipsi vs senicapoc-treated ipsi: 6.221
